The test system of one data set is rats. The following applies: Nobuyuki Ito 1982, cited via U.S. Pat. No. 5,043,100; cited from earlier work.
The nature of data set [1]: DPPH radical quenching / free radical scavenging test. The data set is classed as biochemical. The following applies: Conc. of antioxidant 20 μM. The protocol:
The radical quenching efficiency of the extract was also tested by widely reported standard methods like di-phenyl picryl hydrazyl (DPPH) radical according to the methods of W. Brand Williams, M. E. Cuvelier and C. Berset, Lebesm.-Wiss.
(In general: The DPPH test is a chemical assay of radical scavenging.)

The nature of data set [2]: DSC oxidative stability of soybean oil, isothermal 150° C. under oxygen flow. The following applies: soybean oil stored one week at 60° C.; antioxidant 200 mg per Kg of oil. An excerpt:
DSC experiments: Differential Scanning Calorimeter. The Mettler Toledo instrument used for carrying out the studies, is configured to follow oxidative stability of vegetable oils at a desired higher temperature under oxygen flow. […] With the help of an inbuilt program of the instrument, the induction period in ‘time-units’ could be calculated. This is indicated in the diagram as ‘onset’ time. Longer ‘onset’ time indicates better protection. […] DSC profiles of purified sesame extracts have been included here. In FIG. 6, the oxidative stability of soybean oil stored at 60° C. for 7 days has been depicted. (The storage study continued for one month. The extent of protection as measured in DSC was studied here.). Each experiment such as Control alone, (soybean oil+BHT), (oil+TBHQ), (oil+Sesame extract at 10 ppm, 50 ppm, 200 ppm) etc were carried out separately. For comparison sake, the different profiles have been overlaid in the same figure. In FIG. 6, the concentrations of BHT and TBHQ are 200 mg per Kg. of oil. For comparison, the profile of oil containing sesame extract at 50 ppm is also depicted in the overlaid diagram. […]

A short description of data set [3]: DSC oxidative stability of safflower oil, isothermal 150° C. under oxygen flow. The following applies: fresh safflower oil; antioxidant 200 mg per Kg of oil. The source says: DSC experiments: Differential Scanning Calorimeter. The Mettler Toledo instrument used for carrying out the studies, is configured to follow oxidative stability of vegetable oils at a desired higher temperature under oxygen flow. […] With the help of an inbuilt program of the instrument, the induction period in ‘time-units’ could be calculated. This is indicated in the diagram as ‘onset’ time. Longer ‘onset’ time indicates better protection. […] DSC profiles of purified sesame extracts have been included here. As explained elsewhere, the Figure represents overlaid DSC profiles of safflower oil containing synthetic and sesame antioxidants at few select concentrations. The onset time has been recorded in the printout of the profile. The oxidative stability of vegetable oils containing synthetic antioxidants (BHT and TBHQ at 50-200 ppm) and sesame extract at different levels 3 to 1000 ppm were also tested in the Differential Scanning Calorimeter (Mettler Toledo, model 821) under flow of oxygen (40 ml/min.). The heating regime followed was isothermal at 150° C. and from the curves obtained (FIGS. 6, 7), the ‘onset-time’ of oxidative changes under identical conditions could be found out by making use of an inbuilt program of the instrument, the induction period represented by the onset time, can be correlated with the onset of rancidity.

As for `COc1ccc(O)c(C(C)(C)C)c1` [BHA, Butylated Hydroxy Anisole], the carcinogenicity result with rats was “carcinogenic in rats”.
Take `Cc1cc(C(C)(C)C)c(O)c(C(C)(C)C)c1` [BHT, Butylated Hydroxy Toluene]: the “Free radical Scavenging Effect after 30 min.” value (from here on “Free radical Scavenging Effect”) in data set [1] was found to be 81.61. The DSC onset time in data set [2] came to 7.30 min; in data set [3], 7.23 min.
On to `CC(C)(C)c1cc(O)ccc1O` [TBHQ, tert-Butyl Hydro Quinone], for which, in data set [1], the “Free radical Scavenging Effect” value worked out at 98.88. Further, the DSC onset time in data set [2] stood at 20.48 min; in data set [3] it was 10.01 min.
Take `O=C(OC[C@H]1O[C@@H](OC(=O)c2cc(O)c(O)c(OC(=O)c3cc(O)c(O)c(O)c3)c2)[C@H](OC(=O)c2cc(O)c(O)c(OC(=O)c3cc(O)c(O)c(O)c3)c2)[C@@H](OC(=O)c2cc(O)c(O)c(OC(=O)c3cc(O)c(O)c(O)c3)c2)[C@@H]1OC(=O)c1cc(O)c(O)c(OC(=O)c2cc(O)c(O)c(O)c2)c1)c1cc(O)c(O)c(OC(=O)c2cc(O)c(O)c(O)c2)c1` [Tannic Acid]: the “Free radical Scavenging Effect” value in data set [1] is 98.88.
The same measure, in the same setting: to Catechin belongs 98.51.

Source of the values: patent publication US7396554B2, “Antioxidant sesame extract” (Council of Scientific & Industrial Research, priority 2002, dated 2008).
